Laboratory results taken from ChEMBL document CHEMBL3885861, “Open TG-GATES”.

Species: Rattus norvegicus
Test: Open TG-GATES - Regimen: Daily Repeat
Format: toxicity, organism-based, Sprague-Dawley
Set-up: regimen Daily Repeat, gender Male, age 6 weeks
Conditions: in vivo, iv, route intravenous injection; for APTT / Bas / Eos / Fbg / Hb / Ht / Lym / MCHC / MCV / Mono / Neu / PT / Plat / RBC / Ret / WBC / MCH: tissue Blood; for KIDNEY_L / KIDNEY_R / KIDNEY_TOTAL: tissue Kidney; for LIVER: tissue Liver
[1] = 0 mg/kg, 72 h, dose level Control, time 3 day
[2] = 0 mg/kg, 72 h, tissue Plasma, dose level Control, time 3 day
[3] = 0 mg/kg, […], dose level Control, time 7 day
[4] = 0 mg/kg, […], dose level Control, time 14 day
[5] = 0 mg/kg, […], dose level Control, time 28 day
[6] = 0 mg/kg, […], tissue Plasma, dose level Control, time 7 day
[7] = 0 mg/kg, […], tissue Plasma, dose level Control, time 14 day
[8] = 0 mg/kg, […], tissue Plasma, dose level Control, time 28 day
[9] = 1 mg/kg, 72 h, dose level Low, time 3 day
[10] = 1 mg/kg, 72 h, tissue Plasma, dose level Low, time 3 day
[11] = 1 mg/kg, […], dose level Low, time 7 day
[12] = 1 mg/kg, […], dose level Low, time 14 day
[13] = 1 mg/kg, […], dose level Low, time 28 day
[14] = 1 mg/kg, […], tissue Plasma, dose level Low, time 7 day
[15] = 1 mg/kg, […], tissue Plasma, dose level Low, time 14 day
[16] = 1 mg/kg, […], tissue Plasma, dose level Low, time 28 day

CARBOPLATIN
TERMINAL_BW [1]: 221.4 g | APTT [1]: 23.3 s | Bas [1]: 0% | Eos [1]: 0.8% | Fbg [1]: 298.8 mg/dL | Hb [1]: 13 g/dL | Ht [1]: 40.2% | Lym [1]: 80.4% | MCHC [1]: 32.2% | MCV [1]: 63.6 fL | Mono [1]: 2.6% | Neu [1]: 15.4% | PT [1]: 16.2 s | Plat [1]: 127.8 x10_4/uL | RBC [1]: 633 x10_4/ul | Ret [1]: 5.4% | WBC [1]: 112.5 x10_2/uL | KIDNEY_L [1]: 1 g | KIDNEY_R [1]: 1 g | KIDNEY_TOTAL [1]: 2 g | ALP [2]: 1505 IU/L | ALT [2]: 38.6 IU/L | AST [2]: 67.6 IU/L | BUN [2]: 18 mg/dL | CRE [2]: 0.2 mg/dL | DBIL [2]: 0 mg/dL | GLC [2]: 182.4 mg/dL | IP [2]: 7.3 mg/dL | K [2]: 4.6 meq/L | LDH [2]: 206.4 IU/L | PL [2]: 150 mg/dL | RALB [2]: 3 g/dL | TBIL [2]: 0.004 mg/dL | TC [2]: 78.2 mg/dL | TG [2]: 103 mg/dL | TP [2]: 5.4 g/dL | gamma-GTP [2]: 1.6 IU/L | TERMINAL_BW [3]: 254.4 g | TERMINAL_BW [4]: 298 g | TERMINAL_BW [5]: 364.6 g | APTT [3]: 23.5 s | Bas [3]: 0% | Eos [3]: 0.8% | Fbg [3]: 312.2 mg/dL | Ht [3]: 40.5% | Lym [3]: 81.4% | MCH [3]: 20.6 pg | MCHC [3]: 32.4% | MCV [3]: 63.6 fL | Mono [3]: 2.4% | Plat [3]: 123.2 x10_4/uL | RBC [3]: 638.2 x10_4/ul | Ret [3]: 4.9% | WBC [3]: 120.2 x10_2/uL | APTT [4]: 25.2 s | Bas [4]: 0% | Eos [4]: 1% | Fbg [4]: 296.8 mg/dL | Hb [4]: 13.6 g/dL | Ht [4]: 40.5% | Lym [4]: 80.8% | MCHC [4]: 33.6% | MCV [4]: 60.3 fL | Mono [4]: 3.4% | Plat [4]: 128.4 x10_4/uL | RBC [4]: 672.4 x10_4/ul | Ret [4]: 3.6% | WBC [4]: 136.2 x10_2/uL | APTT [5]: 24.2 s | Bas [5]: 0% | Eos [5]: 1% | Fbg [5]: 308.6 mg/dL | Ht [5]: 42.1% | Lym [5]: 82.2% | MCH [5]: 19.9 pg | MCV [5]: 56.5 fL | Mono [5]: 2.6% | PT [5]: 16 s | Plat [5]: 108.9 x10_4/uL | RBC [5]: 746.2 x10_4/ul | Ret [5]: 2.1% | WBC [5]: 150.1 x10_2/uL | KIDNEY_L [3]: 1.1 g | KIDNEY_R [3]: 1.2 g | KIDNEY_TOTAL [3]: 2.3 g | KIDNEY_L [4]: 1.2 g | KIDNEY_R [4]: 1.2 g | KIDNEY_TOTAL [4]: 2.4 g | KIDNEY_L [5]: 1.3 g | KIDNEY_R [5]: 1.3 g | KIDNEY_TOTAL [5]: 2.7 g | LIVER [4]: 13.1 g | LIVER [5]: 14.9 g | ALP [6]: 1596.2 IU/L | ALT [6]: 39 IU/L | AST [6]: 70.6 IU/L | BUN [6]: 17.6 mg/dL | CRE [6]: 0.2 mg/dL | DBIL [6]: 0 mg/dL | GLC [6]: 182.6 mg/dL | IP [6]: 7.8 mg/dL | K [6]: 4.7 meq/L | LDH [6]: 172.8 IU/L | PL [6]: 144 mg/dL | RALB [6]: 3.1 g/dL | TBIL [6]: 0.002 mg/dL | TC [6]: 74.6 mg/dL | TG [6]: 87.8 mg/dL | TP [6]: 5.6 g/dL | gamma-GTP [6]: 2.2 IU/L | ALP [7]: 1124 IU/L | ALT [7]: 38.2 IU/L | AST [7]: 68.8 IU/L | BUN [7]: 17.2 mg/dL | CRE [7]: 0.2 mg/dL | DBIL [7]: 0 mg/dL | GLC [7]: 203 mg/dL | IP [7]: 6.9 mg/dL | K [7]: 4.3 meq/L | LDH [7]: 155.6 IU/L | Na [7]: 140.4 meq/L | PL [7]: 146 mg/dL | RALB [7]: 3 g/dL | TBIL [7]: 0.008 mg/dL | TC [7]: 73.8 mg/dL | TG [7]: 110.8 mg/dL | TP [7]: 5.7 g/dL | gamma-GTP [7]: 3.6 IU/L | ALP [8]: 1264.8 IU/L | ALT [8]: 43 IU/L | AST [8]: 76.2 IU/L | BUN [8]: 17.6 mg/dL | CRE [8]: 0.2 mg/dL | DBIL [8]: 0.002 mg/dL | IP [8]: 7.1 mg/dL | K [8]: 4.3 meq/L | LDH [8]: 202 IU/L | PL [8]: 138.6 mg/dL | RALB [8]: 3 g/dL | TBIL [8]: 0.01 mg/dL | TC [8]: 67.2 mg/dL | TG [8]: 113 mg/dL | TP [8]: 6 g/dL | gamma-GTP [8]: 2.2 IU/L | TERMINAL_BW [9]: 215.8 g | APTT [9]: 23.9 s | Bas [9]: 0% | Eos [9]: 0.8% | Fbg [9]: 317.8 mg/dL | Hb [9]: 13 g/dL | Lym [9]: 83% | MCHC [9]: 32.2% | Mono [9]: 2.8% | Neu [9]: 12.6% | PT [9]: 16.2 s | Plat [9]: 122.5 x10_4/uL | RBC [9]: 647.8 x10_4/ul | Ret [9]: 4.5% | WBC [9]: 100.1 x10_2/uL | KIDNEY_L [9]: 0.9 g | KIDNEY_R [9]: 0.9 g | KIDNEY_TOTAL [9]: 1.9 g | LIVER [9]: 9.5 g | ALP [10]: 1749.2 IU/L | ALT [10]: 44.2 IU/L | AST [10]: 72.8 IU/L | BUN [10]: 16.6 mg/dL | CRE [10]: 0.2 mg/dL | DBIL [10]: 0 mg/dL | GLC [10]: 175.8 mg/dL | IP [10]: 6.9 mg/dL | K [10]: 4.6 meq/L | LDH [10]: 189.6 IU/L | PL [10]: 147.8 mg/dL | RALB [10]: 3.1 g/dL | TBIL [10]: 0.004 mg/dL | TC [10]: 76.2 mg/dL | TG [10]: 106.8 mg/dL | TP [10]: 5.5 g/dL | gamma-GTP [10]: 1.4 IU/L | TERMINAL_BW [11]: 248.6 g | TERMINAL_BW [12]: 299.2 g | TERMINAL_BW [13]: 348.7 g | APTT [11]: 22.2 s | Bas [11]: 0% | Eos [11]: 1% | Fbg [11]: 304 mg/dL | Ht [11]: 40.7% | Lym [11]: 80.8% | MCH [11]: 19.9 pg | MCHC [11]: 32.4% | Mono [11]: 2.4% | Plat [11]: 136.3 x10_4/uL | RBC [11]: 662 x10_4/ul | Ret [11]: 4.6% | WBC [11]: 108.6 x10_2/uL | APTT [12]: 26.4 s | Bas [12]: 0% | Eos [12]: 1% | Fbg [12]: 302.2 mg/dL | Hb [12]: 14.1 g/dL | Ht [12]: 42.1% | Lym [12]: 83.2% | MCHC [12]: 33.4% | MCV [12]: 60.3 fL | Mono [12]: 2.5% | Neu [12]: 12% | Plat [12]: 111 x10_4/uL | RBC [12]: 698.8 x10_4/ul | Ret [12]: 3.1% | WBC [12]: 122.2 x10_2/uL | APTT [13]: 24.7 s | Bas [13]: 0% | Eos [13]: 1.2% | Fbg [13]: 311.6 mg/dL | Ht [13]: 42.3% | Lym [13]: 83.2% | MCH [13]: 19.1 pg | MCHC [13]: 35.1% | MCV [13]: 54.4 fL | Mono [13]: 2.6% | Neu [13]: 12% | Plat [13]: 105.6 x10_4/uL | RBC [13]: 777.8 x10_4/ul | Ret [13]: 1.7% | WBC [13]: 94.6 x10_2/uL | KIDNEY_L [11]: 1 g | KIDNEY_R [11]: 1 g | KIDNEY_TOTAL [11]: 2 g | KIDNEY_L [12]: 1.2 g | KIDNEY_R [12]: 1.2 g | KIDNEY_TOTAL [12]: 2.4 g | KIDNEY_L [13]: 1.3 g | KIDNEY_R [13]: 1.3 g | KIDNEY_TOTAL [13]: 2.6 g | LIVER [11]: 11.2 g | LIVER [13]: 13.5 g | ALP [14]: 1760.4 IU/L | ALT [14]: 40.6 IU/L | AST [14]: 75 IU/L | BUN [14]: 16.4 mg/dL | CRE [14]: 0.2 mg/dL | Ca [14]: 11 mg/dL | DBIL [14]: 0 mg/dL | IP [14]: 7.5 mg/dL | K [14]: 4.6 meq/L | LDH [14]: 138.8 IU/L | Na [14]: 140.2 meq/L | PL [14]: 138.2 mg/dL | RALB [14]: 3 g/dL | TBIL [14]: 0.008 mg/dL | TG [14]: 94.6 mg/dL | TP [14]: 5.6 g/dL | gamma-GTP [14]: 2.2 IU/L | ALP [15]: 1603 IU/L | ALT [15]: 38 IU/L | AST [15]: 80.4 IU/L | BUN [15]: 18 mg/dL | CRE [15]: 0.2 mg/dL | DBIL [15]: 0.004 mg/dL | GLC [15]: 171.6 mg/dL | IP [15]: 6.4 mg/dL | K [15]: 4.5 meq/L | LDH [15]: 160 IU/L | PL [15]: 130.2 mg/dL | RALB [15]: 3.1 g/dL | TBIL [15]: 0.01 mg/dL | TC [15]: 64.8 mg/dL | TG [15]: 101.6 mg/dL | TP [15]: 5.9 g/dL | gamma-GTP [15]: 2.6 IU/L | ALP [16]: 1005 IU/L | ALT [16]: 40.4 IU/L | CRE [16]: 0.2 mg/dL | DBIL [16]: 0 mg/dL | GLC [16]: 181 mg/dL | IP [16]: 6 mg/dL | K [16]: 4.2 meq/L | LDH [16]: 140.2 IU/L | PL [16]: 133.8 mg/dL | RALB [16]: 3 g/dL | TBIL [16]: 0.006 mg/dL | TC [16]: 68.8 mg/dL | TG [16]: 102.2 mg/dL | TP [16]: 6 g/dL | gamma-GTP [16]: 2.4 IU/L
